Structures are written as SMILES.

T1 sequence (Q12778 whole entry T24A/S256A/S319A): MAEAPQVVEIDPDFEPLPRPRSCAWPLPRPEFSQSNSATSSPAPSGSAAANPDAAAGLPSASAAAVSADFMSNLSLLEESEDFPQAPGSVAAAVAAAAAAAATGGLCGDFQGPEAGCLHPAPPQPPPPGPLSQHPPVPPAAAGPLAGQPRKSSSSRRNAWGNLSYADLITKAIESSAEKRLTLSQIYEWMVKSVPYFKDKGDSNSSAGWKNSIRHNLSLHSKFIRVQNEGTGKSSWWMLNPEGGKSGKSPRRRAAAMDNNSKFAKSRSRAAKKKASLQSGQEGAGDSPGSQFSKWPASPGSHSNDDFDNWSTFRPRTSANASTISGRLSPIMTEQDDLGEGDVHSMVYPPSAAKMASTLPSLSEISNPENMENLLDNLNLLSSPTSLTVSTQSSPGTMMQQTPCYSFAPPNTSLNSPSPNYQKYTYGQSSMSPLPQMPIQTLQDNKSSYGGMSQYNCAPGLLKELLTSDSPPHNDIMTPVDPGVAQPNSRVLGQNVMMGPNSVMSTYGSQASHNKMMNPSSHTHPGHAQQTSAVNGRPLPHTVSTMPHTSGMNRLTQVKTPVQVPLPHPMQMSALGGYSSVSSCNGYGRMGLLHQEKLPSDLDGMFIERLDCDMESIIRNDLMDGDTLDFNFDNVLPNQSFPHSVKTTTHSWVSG

The assay has as its target T1, human FOXO1 (constitutively active form Thr24Ala, Ser256Ala, Ser319Ala) (Homo sapiens, UniProt Q12778, S256A/S319A/T24A).
T1 construct: expressed in transfected cells; host or cells: HEK293 cells transfected with pcDNA3.1 plasmid
Kind of assay: FOXO1 inhibitor activity assay: cell-based transcriptional (luciferase) reporter assay in HEK293 cells. Particulars: HEK293 cells transfected with insulin response element firefly luciferase reporter, FOXO1 and Renilla luciferase; 10-point dose response 50 μM to 2.5 nM; 24 hours. Put shortly: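 IC50 and maximal inhibition were fitted by 4-parameter logistic regression on normalized firefly/Renilla luciferase ratios. The 0% reference used RFP in place of FOXO1, and the 100% reference was DMSO-only with all plasmids.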
On to `COCCOc1ccc(C(=O)Nc2cc(-c3nc4ccccc4[nH]3)[nH]n2)cc1F` [Compound A-103, N-[5-(1H-benzimidazol-2-yl)-1H-pyrazol-3-yl]-3-fluoro-4-(2-methoxy-ethoxy)benzamide], for which the IC50 – broadly, the concentration needed to halve the response being measured – was less than 100 nM.

In turn, `O=C(Nc1cc(-c2nc3cc(C(F)(F)F)ccc3[nH]2)[nH]n1)c1ccc(N2CCOCC2)nc1` [Compound A-102, 6-morpholino-N-[5-[5-(trifluoromethyl)-1H-benzimidazol-2-yl]-1H-pyrazol-3-yl]pyridine-3-carboxamide] had an IC50 greater than 1000 nM.

Turning to `CN(C)C1CCN(c2ccc(C(=O)Nc3cc(-c4nc5ccccc5[nH]4)[nH]n3)cn2)CC1` [Compound A-46, N-[5-(1H-benzimidazol-2-yl)-1H-pyrazol-3-yl]-6-[4-(dimethylamino)-1-piperidyl]pyridine-3-carboxamide], the IC50 was less than 100 nM. In the case of `COc1ccc(C(=O)Nc2cc(-c3cn4ccc(C)cc4n3)[nH]n2)cc1Cl` [Compound A-163, 3-chloro-4-methoxy-N-[5-(7-methylimidazo[1,2-a]pyridin-2-yl)-1H-pyrazol-3-yl]benzamide] it was 300 to 1000 nM; in that of `COCCN1CCN(c2ccc(C(=O)Nc3cc(-c4nc5ccccc5[nH]4)n(CCO)n3)cn2)CC1` [Compound A-198, N-[5-(1H-benzimidazol-2-yl)-1-(2-hydroxyethyl)pyrazol-3-yl]-6-[4-(2-methoxyethyl)piperazin-1-yl]pyridine-3-carboxamide], 300 to 1000 nM; in that of `O=C(Nc1cc(-c2nc3cc(Cl)ccc3[nH]2)[nH]n1)c1ccc(N2CCC(O)CC2)nc1` [Compound A-87, N-[5-(5-chloro-1H-benzimidazol-2-yl)-1H-pyrazol-3-yl]-6-(4-hydroxy-1-piperidyl)pyridine-3-carboxamide], greater than 1000 nM. Regarding `O=C(Nc1cc(-c2nc3cc(OC(F)(F)F)ccc3[nH]2)[nH]n1)c1ccc(N2CCOCC2)nc1` [Compound A-107, 6-morpholino-N-[5-[5-(trifluoromethoxy)-1H-benzimidazol-2-yl]-1H-pyrazol-3-yl]pyridine-3-carboxamide], the IC50 was greater than 1000 nM.

`Cc1ccc2[nH]c(-c3cc(NC(=O)c4ccc(N5CCOCC5)nc4)n[nH]3)nc2c1` [Compound A-100, N-[5-(5-methyl-1H-benzimidazol-2-yl)-1H-pyrazol-3-yl]-6-morpholino-pyridine-3-carboxamide] returned an IC50 of 100 to 300 nM. With `Cn1nc(NC(=O)c2ccc(N3CCNC(C)(C)C3)nc2)cc1-c1nc2ccccc2[nH]1` [Compound A-280, N-[5-(1H-benzimidazol-2-yl)-1-methyl-pyrazol-3-yl]-6-(3,3-dimethyl-piperazin-1-yl)pyridine-3-carboxamide] the figure was less than 100 nM. In the case of `COc1cc(F)c2[nH]c(-c3cc(NC(=O)c4ccc(N5CC(OC)C5)nc4)n[nH]3)nc2c1` [Compound A-188, N-[5-(7-fluoro-5-methoxy-1H-benzimidazol-2-yl)-1H-pyrazol-3-yl]-6-(3-methoxyazetidin-1-yl)pyridine-3-carboxamide], the IC50 is greater than 1000 nM.

For `O=C(Nc1cc(-c2nc3cc(F)ccc3[nH]2)[nH]n1)c1ccc(N2CCC(CO)CC2)nc1` [Compound A-80, N-[5-(5-fluoro-1H-benzimidazol-2-yl)-1H-pyrazol-3-yl]-6-[4-(hydroxymethyl)-1-piperidyl]pyridine-3-carboxamide], the IC50 is less than 100 nM.

Compound `C[C@@H]1CN(c2ccc(C(=O)Nc3cc(-c4nc5ccccc5[nH]4)n(C)n3)cn2)CCN1` [Compound A-247, N-[5-(1H-benzimidazol-2-yl)-1-methyl-pyrazol-3-yl]-6-[(3R)-3-methylpiperazin-1-yl]pyridine-3-carboxamide] yielded an IC50 of less than 100 nM. In the case of `O=C(Nc1cc(-c2nc3ccccc3[nH]2)[nH]n1)c1ccc(N2CC[C@H](O)C2)cc1` [Compound A-43, N-[5-(1H-benzimidazol-2-yl)-1H-pyrazol-3-yl]-4-[(3S)-3-hydroxy-pyrrolidin-1-yl]benzamide] it was less than 100 nM; in that of `O=C(Nc1cc(-c2nc3ccccc3[nH]2)[nH]n1)c1ccc(N2CCN(C3COC3)CC2)nc1` [Compound A-171, N-[5-(1H-benzimidazol-2-yl)-1H-pyrazol-3-yl]-6-[4-(oxetan-3-yl)-piperazin-1-yl]pyridine-3-carboxamide], less than 100 nM. With `Cn1nc(NC(=O)c2ccc(N3CCNC(CO)C3)nc2)cc1-c1nc2ccccc2[nH]1` (stereo not drawn) [Compound A-258, N-[5-(1H-benzimidazol-2-yl)-1-methyl-pyrazol-3-yl]-6-[3-(hydroxy-methyl)piperazin-1-yl]pyridine-3-carboxamide] the figure was 300 to 1000 nM. In the case of `CC(=O)N(C)C1CCN(c2ccc(C(=O)Nc3cc(-c4nc5ccccc5[nH]4)[nH]n3)cn2)CC1` [Compound A-170, 6-[4-[acetyl(methyl)amino]-1-piperidyl]-N-[5-(1H-benzimidazol-2-yl)-1H-pyrazol-3-yl]pyridine-3-carboxamide] it was 100 to 300 nM.

In the case of `CCOC(=O)COc1ccc(C(=O)Nc2cc(-c3nc4ccccc4[nH]3)[nH]n2)cn1` [Compound A-70, ethyl 2-[[5-[[5-(1H-benzimidazol-2-yl)-1H-pyrazol-3-yl]carbamoyl]-2-pyridyl]oxy]acetate], the IC50 is greater than 1000 nM.

`Cn1nc(NC(=O)c2ccc(OCCO)c(C(F)(F)F)c2)cc1-c1nc2ccccc2[nH]1` [Compound A-223, N-[5-(1H-benzimidazol-2-yl)-1-methyl-pyrazol-3-yl]-4-(2-hydroxyethoxy)-3-(trifluoromethyl)benzamide] showed an IC50 of less than 100 nM.

For the compound `O=C(Nc1cc(-c2nc3ccccc3[nH]2)[nH]n1)c1ccc(N2CC(O)C2)nc1` [Compound A-64, N-[5-(1H-benzimidazol-2-yl)-1H-pyrazol-3-yl]-6-(3-hydroxyazetidin-1-yl)pyridine-3-carboxamide], the IC50 was greater than 1000 nM.

The compound `O=C(Nc1cc(-c2nc3ccccc3[nH]2)[nH]n1)c1ccc(N2CC[C@@H](O)C2)nc1` [Compound A-55, N-[5-(1H-benzimidazol-2-yl)-1H-pyrazol-3-yl]-6-[(3R)-3-hydroxypyrrolidin-1-yl]pyridine-3-carboxamide] displayed an IC50 of 300 to 1000 nM. With `COCCOc1ccc(C(=O)Nc2cc(-c3nc4ccccc4[nH]3)[nH]n2)cc1OC` [Compound A-75, N-[5-(1H-benzimidazol-2-yl)-1H-pyrazol-3-yl]-3-methoxy-4-(2-methoxyethoxy)benzamide] the figure was less than 100 nM; with `COC1CN(c2ccc(C(=O)Nc3cc(-c4nc5ccccc5[nH]4)n(C)n3)cn2)C1` [Compound A-97, N-[5-(1H-benzimidazol-2-yl)-1-methyl-pyrazol-3-yl]-6-(3-methoxyazetidin-1-yl)pyridine-3-carboxamide], 100 to 300 nM; with `CN1CCN(c2ccc(C(=O)Nc3cc(-c4nc5ccccc5[nH]4)[nH]n3)cn2)CC1=O` [Compound A-243, N-[5-(1H-benzimidazol-2-yl)-1H-pyrazol-3-yl]-6-(4-methyl-3-oxo-piperazin-1-yl)pyridine-3-carboxamide], 300 to 1000 nM.

Take `COC1CCN(c2ccc(C(=O)Nc3cc(-c4nc5ccccc5[nH]4)[nH]n3)cn2)CC1` [Compound A-159, N-[5-(1H-benzimidazol-2-yl)-1H-pyrazol-3-yl]-6-(4-methoxy-1-piperidyl)-pyridine-3-carboxamide]: the IC50 was less than 100 nM.

Source of the values: US20230416228A1 (Forkhead Biotherapeutics, Inc., priority 2020, published 2023).
